The values below come from ChEMBL document CHEMBL1156986, “Derivatives of schisandrin with increased inhibitory potential on prostaglandin E(2) and leukotriene B(4) formation in vitro” (Bioorg Med Chem, 2010).

Assay [1] addresses T1, Prostaglandin G/H synthase 2 (Ovis aries) (UniProt P79208).
T1 sequence (whole entry): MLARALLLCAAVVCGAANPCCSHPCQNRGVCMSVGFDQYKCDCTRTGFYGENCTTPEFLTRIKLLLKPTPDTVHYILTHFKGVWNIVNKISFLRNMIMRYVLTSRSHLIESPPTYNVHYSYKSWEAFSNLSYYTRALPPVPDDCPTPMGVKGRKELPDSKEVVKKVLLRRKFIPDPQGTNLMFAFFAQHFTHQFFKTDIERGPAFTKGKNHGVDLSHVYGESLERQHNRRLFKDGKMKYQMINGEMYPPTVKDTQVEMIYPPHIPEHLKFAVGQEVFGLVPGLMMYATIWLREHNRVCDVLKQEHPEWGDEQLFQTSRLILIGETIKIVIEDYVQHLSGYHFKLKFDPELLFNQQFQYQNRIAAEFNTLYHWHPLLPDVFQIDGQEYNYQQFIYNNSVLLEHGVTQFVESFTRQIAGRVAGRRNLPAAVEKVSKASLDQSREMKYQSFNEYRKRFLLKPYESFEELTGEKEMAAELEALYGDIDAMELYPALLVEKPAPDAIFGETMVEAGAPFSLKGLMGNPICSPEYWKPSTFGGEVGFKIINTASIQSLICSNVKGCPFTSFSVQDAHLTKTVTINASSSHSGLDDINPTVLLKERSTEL
The assay is described as follows: Inhibition of ram seminal vesicle COX2 at 50 uM assessed as PGE2 level by EIA. In kind it is tissue-based.

Assay [2] has as its target T2, Prostaglandin G/H synthase 1 (Ovis aries) (UniProt P05979).
T2 sequence (whole entry): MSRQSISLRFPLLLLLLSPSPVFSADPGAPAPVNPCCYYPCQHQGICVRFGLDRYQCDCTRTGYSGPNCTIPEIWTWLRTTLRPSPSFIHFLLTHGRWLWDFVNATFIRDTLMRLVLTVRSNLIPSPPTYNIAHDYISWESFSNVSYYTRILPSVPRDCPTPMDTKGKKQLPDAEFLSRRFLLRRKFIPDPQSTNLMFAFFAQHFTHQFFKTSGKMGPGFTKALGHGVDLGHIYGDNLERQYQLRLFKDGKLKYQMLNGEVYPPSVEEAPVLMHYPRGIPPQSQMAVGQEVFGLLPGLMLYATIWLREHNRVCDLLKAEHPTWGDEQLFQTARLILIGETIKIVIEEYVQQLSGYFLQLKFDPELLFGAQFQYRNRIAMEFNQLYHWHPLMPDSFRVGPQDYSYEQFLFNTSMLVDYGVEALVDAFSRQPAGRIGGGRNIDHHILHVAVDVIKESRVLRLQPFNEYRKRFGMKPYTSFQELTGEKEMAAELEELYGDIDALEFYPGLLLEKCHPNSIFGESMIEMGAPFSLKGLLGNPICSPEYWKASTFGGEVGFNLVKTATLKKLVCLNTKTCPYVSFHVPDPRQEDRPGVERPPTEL
The assay can be described thus: Inhibition of ram seminal vesicle COX1 at 50 uM assessed as PGE2 concentration.

For assay [3], the target named is T3, Polyunsaturated fatty acid 5-lipoxygenase (Homo sapiens) (UniProt P09917).
T3 sequence (whole entry): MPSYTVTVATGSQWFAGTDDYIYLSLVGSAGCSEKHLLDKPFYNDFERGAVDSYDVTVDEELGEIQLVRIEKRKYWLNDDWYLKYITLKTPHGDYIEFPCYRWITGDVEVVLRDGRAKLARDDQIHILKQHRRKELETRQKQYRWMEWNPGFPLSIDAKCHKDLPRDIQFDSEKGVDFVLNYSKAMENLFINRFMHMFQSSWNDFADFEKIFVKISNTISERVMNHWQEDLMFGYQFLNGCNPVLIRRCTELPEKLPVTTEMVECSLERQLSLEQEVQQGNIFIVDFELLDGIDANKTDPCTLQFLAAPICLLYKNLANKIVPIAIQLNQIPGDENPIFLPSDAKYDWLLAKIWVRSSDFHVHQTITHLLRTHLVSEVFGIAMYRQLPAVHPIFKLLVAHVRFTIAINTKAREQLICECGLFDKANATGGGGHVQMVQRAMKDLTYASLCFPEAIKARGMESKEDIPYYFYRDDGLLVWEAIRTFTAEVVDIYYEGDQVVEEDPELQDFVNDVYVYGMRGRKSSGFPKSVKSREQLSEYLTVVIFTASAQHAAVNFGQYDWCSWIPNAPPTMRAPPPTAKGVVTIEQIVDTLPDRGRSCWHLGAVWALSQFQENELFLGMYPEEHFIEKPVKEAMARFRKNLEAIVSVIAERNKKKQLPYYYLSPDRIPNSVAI
The assay can be described thus: Inhibition of 5-LOX-mediated LTB4 production from stimulated human neutrophile granulocytes at 50 uM after 10 mins by EIA.

The target in assay [4] is T4, Polyunsaturated fatty acid 5-lipoxygenase (Homo sapiens, UniProt P09917).
T4 sequence (P09917 whole entry): T3 sequence (whole entry)
The assay can be described thus: Inhibition of 5-LOX-mediated LTB4 production in stimulated human neutrophile granulocytes after 10 mins by EIA.

Assay [5] addresses T5, Prostaglandin G/H synthase 2 (Ovis aries, UniProt P79208).
T5 sequence (P79208 whole entry): T1 sequence (whole entry)
The assay can be described thus: Inhibition of sheep placental cotyledens COX2 assessed as PGE2 level by EIA.

The source made the active and inactive calls. The rule behind the calls is not given here.

As usually defined, the inhibition is the change of the read-out against control, counted positive when it falls. In general, IC50 refers to the midpoint of a concentration-inhibition curve.

As for `COc1cc2c(c(O)c1O)-c1c(cc(OC)c(O)c1O)C[C@](C)(O)[C@@H](C)C2`, the inhibition entry in assay [1] and in assay [2] was “inactive” throughout.

On to `C/C=C(\C)C(=O)Oc1c(OC)c(OC)cc2c1-c1c(cc(OC)c(OC)c1OC)C[C@](C)(O)[C@@H](C)C2`, for which the inhibition result in assay [1], in assay [2] and in assay [3] was “inactive” in each case.

As to `COc1cc2c(c(O)c1O)-c1c(cc(OC)c(O)c1O)CC(C)(C(C)O)C2` (stereo unspecified), the inhibition result in assay [2] is “inactive”. In assay [4], the IC50 was 4.2 µM.

Take `COc1cc2c(c(OC)c1OC)-c1c(cc(OC)c(OC)c1OC)C[C@](C)(O)[C@@H](C)C2`: the inhibition entry in assay [1], in assay [2] and in assay [3] was “inactive” each time.

As to `COc1cc2c(c(OC)c1OC)-c1c(cc(OC)c(OC)c1OC)CC(C)(C(C)I)C2` (stereo unspecified), the inhibition result in assay [2] was “inactive”. For the same compound, in assay [4], the IC50 is 4.5 µM.

Turning to `C/C=C(/C)C(=O)Oc1c(OC)c(OC)cc2c1-c1c(cc(OC)c(OC)c1OC)C[C@](C)(O)[C@@H](C)C2`, the inhibition result in assay [1], in assay [2] and in assay [3] was “inactive” in each case.

For the compound `COc1cc2c(c(OC)c1OC)-c1c(cc3c(c1OC)OCO3)C[C@H](C)[C@](C)(O)C2`, the inhibition result in assay [1], in assay [2] and in assay [3] was “inactive” each time.

`CC(O)C1(C)Cc2cc(O)c(O)c(O)c2-c2c(cc(O)c(O)c2O)C1` (stereo unspecified): the inhibition result in assay [2] is “inactive”. Further, the IC50 in assay [5] was found to be 32.1 µM. Also, the inhibition in assay [3] came to 37.3%.
